{
  "source": "ChEMBL document CHEMBL1121583",
  "about": "“Synthesis and structure-activity studies of a series of 7 alpha-halogeno corticosteroids” (1980)",
  "system": "Mus musculus",
  "assay": "Relative topical anti inflammatory activity was measured in mice by comparing with cumulative potency of betamethasone valerate by using croton oil ear assay",
  "type": "functional",
  "data": [
    {"molecule": "CCCCC(=O)O[C@]1(C(=O)CO)[C@@H](C)C[C@H]2[C@@H]3CCC4=CC(=O)C=C[C@]4(C)[C@@]3(F)[C@@H](O)C[C@@]21C", "note": "[BETAMETHASONE VALERATE]", "values": [
      {"measurement": "Potency", "value": 100}
    ]},
    {"molecule": "CC(=O)OCC(=O)[C@@]1(O)[C@H](C)CC2C3C(C(O)C[C@@]21C)[C@@]1(C)C=CC(=O)C=C1C[C@H]3Br", "note": "(some centres not stated)", "values": [
      {"measurement": "Potency", "value": 20}
    ]},
    {"molecule": "CC(=O)OCC(=O)[C@@]1(O)[C@H](C)CC2C3C(C(O)C[C@@]21C)[C@@]1(C)C=CC(=O)C=C1C[C@H]3Cl", "note": "(some centres not stated)", "values": [
      {"measurement": "Potency", "value": 32}
    ]},
    {"molecule": "CC(=O)OCC(=O)[C@@]1(O)[C@@H](C)CC2C3C(C(O)C[C@@]21C)[C@@]1(C)C=CC(=O)C=C1C[C@H]3I", "note": "(some centres not stated)", "values": [
      {"measurement": "Potency", "value": 54}
    ]},
    {"molecule": "CC(=O)OCC(=O)[C@@]1(O)[C@@H](C)CC2C3C(C(O)C[C@@]21C)[C@@]1(C)C=CC(=O)C=C1C[C@H]3Cl", "note": "(some centres not stated)", "values": [
      {"measurement": "Potency", "value": 81}
    ]},
    {"molecule": "CCC(=O)OCC(=O)[C@@]1(OC(=O)CC)[C@H](C)CC2C3C(C(O)C[C@@]21C)[C@@]1(C)C=CC(=O)C=C1C[C@H]3I", "note": "(some centres not stated)", "values": [
      {"measurement": "Potency", "value": 36}
    ]},
    {"molecule": "CCC(=O)OCC(=O)[C@@]1(OC(=O)CC)[C@H](C)CC2C3CCC4=CC(=O)C=C[C@]4(C)C3C(O)C[C@@]21C", "note": "(some centres not stated)", "values": [
      {"measurement": "Potency", "value": 74}
    ]},
    {"molecule": "CCC(=O)OCC(=O)[C@@]1(OC(=O)CC)[C@H](C)CC2C3C(C(O)C[C@@]21C)[C@@]1(C)C=CC(=O)C=C1C[C@H]3Br", "note": "(some centres not stated)", "values": [
      {"measurement": "Potency", "value": 120}
    ]},
    {"molecule": "CC(=O)OCC(=O)[C@@]1(O)[C@H](C)CC2C3CCC4=CC(=O)C=C[C@]4(C)C3C(O)C[C@@]21C", "note": "(some centres not stated)", "values": [
      {"measurement": "Potency", "value": 10}
    ]},
    {"molecule": "CC(=O)OCC(=O)[C@@]1(O)[C@@H](C)CC2C3C(C(O)C[C@@]21C)[C@@]1(C)C=CC(=O)C=C1C[C@H]3F", "note": "(some centres not stated)", "values": [
      {"measurement": "Potency", "value": 16}
    ]},
    {"molecule": "CC(=O)OCC(=O)[C@@]1(O)[C@@H](C)CC2C3C=CC4=CC(=O)C=C[C@]4(C)C3C(O)C[C@@]21C", "note": "(some centres not stated)", "values": [
      {"measurement": "Potency", "value": 29}
    ]},
    {"molecule": "CC(=O)OCC(=O)[C@@]1(O)[C@@H](C)CC2C3C(C(O)C[C@@]21C)[C@@]1(C)C=CC(=O)C=C1C[C@H]3Br", "note": "(some centres not stated)", "values": [
      {"measurement": "Potency", "value": 94}
    ]},
    {"molecule": "CCC(=O)OCC(=O)[C@@]1(OC(=O)CC)[C@H](C)CC2C3C=CC4=CC(=O)C=C[C@]4(C)C3C(O)C[C@@]21C", "note": "(some centres not stated)", "values": [
      {"measurement": "Potency", "value": 27}
    ]},
    {"molecule": "CC(=O)OCC(=O)[C@@]1(O)[C@@H](C)CC2C3CCC4=CC(=O)C=C[C@]4(C)C3C(O)C[C@@]21C", "note": "(some centres not stated)", "values": [
      {"measurement": "Potency", "value": 26}
    ]},
    {"molecule": "CCC(=O)OCC(=O)[C@@]1(OC(=O)CC)[C@@H](C)CC2C3C(C(O)C[C@@]21C)[C@@]1(C)C=CC(=O)C=C1C[C@H]3F", "note": "(some centres not stated)", "values": [
      {"measurement": "Potency", "value": 69}
    ]},
    {"molecule": "CCC(=O)OCC(=O)[C@@]1(OC(=O)CC)[C@H](C)CC2C3C(C(O)C[C@@]21C)[C@@]1(C)C=CC(=O)C=C1C[C@H]3F", "note": "(some centres not stated)", "values": [
      {"measurement": "Potency", "value": 78}
    ]},
    {"molecule": "CCC(=O)OCC(=O)[C@@]1(OC(=O)CC)[C@@H](C)CC2C3CCC4=CC(=O)C=C[C@]4(C)C3C(O)C[C@@]21C", "note": "(some centres not stated)", "values": [
      {"measurement": "Potency", "value": 76}
    ]},
    {"molecule": "CC(=O)OCC(=O)[C@@]1(O)[C@H](C)CC2C3C=CC4=CC(=O)C=C[C@]4(C)C3C(O)C[C@@]21C", "note": "(some centres not stated)", "values": [
      {"measurement": "Potency", "value": 4}
    ]},
    {"molecule": "CCC(=O)OCC(=O)[C@@]1(OC(=O)CC)[C@@H](C)C[C@H]2[C@@H]3CCC4=CC(=O)C=C[C@]4(C)[C@@]3(F)[C@@H](O)C[C@@]21C", "note": "[BETAMETHASONE DIPROPIONATE]", "values": [
      {"measurement": "Potency", "value": 165}
    ]},
    {"molecule": "CCC(=O)OCC(=O)[C@@]1(OC(=O)CC)[C@@H](C)CC2C3C(C(O)C[C@@]21C)[C@@]1(C)C=CC(=O)C=C1C[C@H]3Br", "note": "(some centres not stated)", "values": [
      {"measurement": "Potency", "value": 186}
    ]},
    {"molecule": "CCC(=O)OCC(=O)[C@@]1(OC(=O)CC)[C@@H](C)CC2C3C(C(O)C[C@@]21C)[C@@]1(C)C=CC(=O)C=C1C[C@H]3I", "note": "(some centres not stated)", "values": [
      {"measurement": "Potency", "value": 103}
    ]},
    {"molecule": "CCC(=O)OCC(=O)[C@@]1(OC(=O)CC)[C@@H](C)CC2C3C=CC4=CC(=O)C=C[C@]4(C)C3C(O)C[C@@]21C", "note": "(some centres not stated)", "values": [
      {"measurement": "Potency", "value": 57}
    ]}
  ]
}
